In one experiment the test system is MCF7. The experiment can be described thus: Anticancer activity against human MCF7 cells assessed as reduction in cell viability incubated for 72 hrs by MTT assay. As to conditions: MCF7, 72 h. It is filed as functional, cell-based.
The test system of a further experiment is SK-MEL3. Briefly: Anticancer activity against human SK-MEL3 cells assessed as reduction in cell viability incubated for 72 hrs by MTT assay. It is filed as functional, cell-based. Particulars: SK-MEL3, 72 h.
For another experiment, the system named is A-431. The experiment can be described thus: Anticancer activity against human A-431 cells assessed as reduction in cell viability incubated for 72 hrs by MTT assay. It is filed as functional, cell-based. As to conditions: A-431, 72 h.
The test system of a further experiment is EJ. Briefly: Anticancer activity against human EJ cells assessed as reduction in cell viability incubated for 72 hrs by MTT assay. It is filed as functional, cell-based.
Another experiment deals with SW480. Briefly: Anticancer activity against human SW480 cells assessed as reduction in cell viability incubated for 72 hrs by MTT assay. Format: functional, cell-based. Particulars: SW480, 72 h.
A further experiment deals with KB. The experiment can be described thus: Anticancer activity against human KB cells assessed as reduction in cell viability incubated for 72 hrs by MTT assay. Format: functional, cell-based.
In the next experiment the test system is A549. Briefly: Anticancer activity against human A549 cells assessed as reduction in cell viability incubated for 72 hrs by MTT assay. Particulars: A549, 72 h. It is filed as functional, cell-based.
Another experiment relates to HL-60. Briefly: Anticancer activity against human HL-60 cells assessed as reduction in cell viability incubated for 72 hrs by MTT assay. Format: functional, cell-based. Particulars: HL-60, 72 h.
In another experiment the test system is HeLa. The experiment can be described thus: Anticancer activity against human HeLa cells assessed as reduction in cell viability incubated for 72 hrs by MTT assay. It is filed as functional, cell-based.
The test system of experiment [1] is Panel NCI-60 (60 carcinoma cell lines). Briefly: Anticancer activity against human Panel NCI-60 (60 carcinoma cell lines) cells assessed as cell growth inhibition incubated for 48 hrs by sulforhodamine B assay. It is filed as functional.

In the case of `CCn1cc(C(=O)O)c(=O)c2cc(F)c(N3CCN(C/C(=N/OC)c4ccc(Cl)s4)CC3)cc21`, the concentration for half-maximal inhibition (IC50) in the experiment with MCF7, with SK-MEL3, in the experiment with A-431, in the experiment on EJ, with SW480 and in the experiment with KB was under 10000 nM throughout.
On to `N=C(NS(=O)(=O)c1ccc(Cl)cc1)N1CCN(c2cc3c(cc2F)c(=O)c(C(=O)O)cn3C2CC2)CC1`, for which the results for the IC50 in the experiment with A549, in the experiment on HL-60 and in the experiment on HeLa were 71 nM, 43 nM and 32 nM, respectively.
As to `O=C(O)c1cn(C2CC2)c2cc(N3CCN(C/C(=N/OCc4ccccc4)c4ccc(Cl)s4)CC3)c(F)cc2c1=O`, the IC50 in the experiment with MCF7, in the experiment on SK-MEL3, in the experiment on A-431, with EJ, in the experiment on SW480 and in the experiment on KB was under 10000 nM in each case.
As to `CCn1cc(C(=O)O)c(=O)c2cc(F)c(N3CCN(CC(=O)c4ccc(Cl)s4)CC3)cc21`, the IC50 with MCF7, in the experiment with SK-MEL3, with A-431, in the experiment with EJ, in the experiment with SW480 and in the experiment with KB was under 10000 nM each time.
In the case of `O=C(O)c1cn(C2CC2)c2cc(N3CCN(C/C(=N/O)c4ccc(Cl)s4)CC3)c(F)cc2c1=O`, the IC50 in the experiment on MCF7, with SK-MEL3, with A-431, with EJ, with SW480 and with KB was under 10000 nM in each case.
For `CCn1cc(C(=O)O)c(=O)c2cc(F)c(N3CCN(C(=N)NS(=O)(=O)c4ccccc4C(F)(F)F)CC3)cc21`, the IC50 in the experiment on A549 was 71 nM; with HL-60, 43 nM; in the experiment with HeLa, 32 nM.
The matching figures for `N=C(NS(=O)(=O)c1ccccc1Cl)N1CCN(c2cc3c(cc2F)c(=O)c(C(=O)O)cn3C2CC2)CC1`: 71 nM, 43 nM and 32 nM.
In the case of `O=C(CN1CCN(c2cc3c(cc2F)c(=O)c(C(=O)O)cn3C2CC2)CC1)c1ccc(Cl)s1`, the 50% inhibitory concentration (IC50) in the experiment on MCF7, in the experiment on SK-MEL3, in the experiment with A-431, in the experiment on EJ, in the experiment with SW480 and in the experiment on KB was under 10000 nM in each case.
With `CCn1cc(C(=O)O)c(=O)c2cc(F)c(N3CCN(C(=N)NS(=O)(=O)c4ccccc4)CC3)cc21`, the IC50 in the experiment on A549 is 71 nM; with HL-60 it was 43 nM; with HeLa, 32 nM.
In the case of `O=C(O)c1cn(C2CC2)c2cc(N3CCN(S(=O)(=O)c4ccc(Cl)c(Cl)c4)CC3)c(F)cc2c1=O`, the GI50 in [1] was determined as 2630 nM.
As for `N=C(NS(=O)(=O)c1cccc(Cl)c1)N1CCN(c2cc3c(cc2F)c(=O)c(C(=O)O)cn3C2CC2)CC1`, the figures for the half-inhibitory concentration (IC50) with A549, in the experiment with HL-60 and with HeLa were 71 nM, 43 nM and 32 nM, respectively.
Take `CCn1cc(C(=O)O)c(=O)c2cc(F)c(N3CCN(C(=N)NS(=O)(=O)c4ccccc4Cl)CC3)cc21`: the IC50 amounted to 71 nM in the experiment with A549, 43 nM in the experiment with HL-60 and 32 nM with HeLa.
On to `CCn1cc(C(=O)O)c(=O)c2cc(F)c(N3CCN(C/C(=N/O)c4ccc(Cl)s4)CC3)cc21`, for which the IC50 in the experiment with MCF7, in the experiment with SK-MEL3, in the experiment on A-431, in the experiment on EJ, in the experiment on SW480 and with KB was under 10000 nM throughout.
On to `CCn1cc(C(=O)O)c(=O)c2cc(F)c(N3CCN(CC(=O)c4ccc(OC)cc4)CC3)c(F)c21`, for which the GI50 in [1] was determined as 22000 nM.
`CCn1cc(C(=O)O)c(=O)c2cc(F)c(N3CCN(C/C(=N/OCc4ccccc4)c4ccc(Cl)s4)CC3)cc21`: the IC50 in the experiment on MCF7, in the experiment on SK-MEL3, in the experiment with A-431, with EJ, in the experiment on SW480 and in the experiment with KB was under 10000 nM each time.
Take `C#Cc1cccc(Nc2ncnc3cc(OCCOC)c(OCCOC)cc23)c1` [ERLOTINIB]: the GI50 in experiment [1] came out at 7290 nM.
For the compound `N=C(NS(=O)(=O)c1ccccc1C(F)(F)F)N1CCN(c2cc3c(cc2F)c(=O)c(C(=O)O)cn3C2CC2)CC1`, the IC50 stood at 71 nM in the experiment on A549, 43 nM in the experiment on HL-60 and 32 nM in the experiment with HeLa.
`CCn1cc(C(=O)O)c(=O)c2cc(F)c(N3CCN(C/C(=N/O)c4ccc(Cl)s4)CC3)nc21`: the IC50 with MCF7, in the experiment on SK-MEL3, with A-431, in the experiment on EJ, with SW480 and with KB was under 10000 nM in each case.
As to `CCn1cc(C(=O)O)c(=O)c2cc(F)c(N3CCN(C(=N)NS(=O)(=O)c4ccc(C(F)(F)F)cc4)CC3)cc21`, the IC50 with A549 worked out at 71 nM; in the experiment with HL-60 it was 43 nM; in the experiment with HeLa, 32 nM.
As to `Cc1ccc(S(=O)(=O)NC(=N)N2CCN(c3cc4c(cc3F)c(=O)c(C(=O)O)cn4C3CC3)CC2)cc1`, the IC50 with A549 was 71 nM; in the experiment with HL-60, 43 nM; in the experiment with HeLa, 32 nM.
In the same order, the values of `N=C(NS(=O)(=O)c1ccc(C(F)(F)F)cc1)N1CCN(c2cc3c(cc2F)c(=O)c(C(=O)O)cn3C2CC2)CC1` are 71 nM, 43 nM and 32 nM.
`CCn1cc(C(=O)O)c(=O)c2cc(F)c(N3CCN(CC(=O)c4ccc(Cl)s4)CC3)nc21`: the IC50 in the experiment with MCF7, in the experiment with SK-MEL3, with A-431, in the experiment with EJ, with SW480 and in the experiment with KB was under 10000 nM throughout.
Take `CCn1cc(C(=O)O)c(=O)c2cc(F)c(N3CCN(C(=N)NS(=O)(=O)c4cccc(Cl)c4)CC3)cc21`: the 50% inhibitory concentration (IC50) with A549 stood at 71 nM; with HL-60, 43 nM; in the experiment with HeLa it was 32 nM.
For `CCn1cc(C(=O)O)c(=O)c2cc(F)c(N3CCN(C(=N)NS(=O)(=O)c4ccc(C)cc4)CC3)cc21`, the IC50 with A549 came out at 71 nM; in the experiment with HL-60, 43 nM; with HeLa it was 32 nM.
With `CCn1cc(C(=O)O)c(=O)c2cc(F)c(N3CCNCC3)nc21` [ENOXACIN], the half-inhibitory concentration (IC50) in the experiment on MCF7, in the experiment with SK-MEL3, with A-431, in the experiment on EJ, in the experiment on SW480 and in the experiment with KB was over 128000 nM throughout.
In the case of `CCn1cc(C(=O)O)c(=O)c2cc(F)c(N3CCN(C(=N)NS(=O)(=O)c4ccc(Cl)cc4)CC3)cc21`, the IC50 with A549 came out at 71 nM; in the experiment with HL-60, 43 nM; in the experiment on HeLa, 32 nM.
`CO/N=C(/CN1CCN(c2cc3c(cc2F)c(=O)c(C(=O)O)cn3C2CC2)CC1)c1ccc(Cl)s1`: the IC50 in the experiment with MCF7, with SK-MEL3, in the experiment on A-431, with EJ, in the experiment with SW480 and with KB was under 10000 nM throughout.
As to `CCn1cc(C(=O)O)c(=O)c2cc(F)c(N3CCN(C/C(=N/OC)c4ccc(Cl)s4)CC3)nc21`, the IC50 in the experiment with MCF7, in the experiment on SK-MEL3, in the experiment with A-431, in the experiment on EJ, in the experiment on SW480 and in the experiment on KB was under 10000 nM in each case.
For the compound `N=C(NS(=O)(=O)c1ccccc1)N1CCN(c2cc3c(cc2F)c(=O)c(C(=O)O)cn3C2CC2)CC1`, the IC50 came out at 71 nM with A549, 43 nM in the experiment with HL-60 and 32 nM in the experiment on HeLa.

(Values after ChEMBL document CHEMBL5233217, “Modification of 7-piperazinylquinolone antibacterials to promising anticancer lead compounds: Synthesis and in vitro studies” (Eur J Med Chem, 2020).)
